Measured values taken from patent publication US6620790B2, “Isolated arachidonic acid-binding heteromer and its use in cosmetics and pharmaceutics” (Societe L'Oreal S.A., priority 1909, dated 2003).

T1: arachidonic acid-binding heteromer (non-covalent complex of two MRP8 sub-units, SEQ ID NOs: 1-2, and one MRP14 sub-unit, SEQ ID NOs: 3-4; approx. 34 kDa), isola (Homo sapiens, UniProt P05109+P06702)
T1 construct: conventional steps of protein extraction from biological tissues, more specifically from skin tissues; from tissue; host or cells: psoriasis scales (human keratinocytes), membrane pellet extracted with KCl buffer
T1 sequence (P05109 1-93) 1: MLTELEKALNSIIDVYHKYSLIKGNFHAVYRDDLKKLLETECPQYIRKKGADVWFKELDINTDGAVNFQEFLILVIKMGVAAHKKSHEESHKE
T1 sequence (P05109 1-93) 2: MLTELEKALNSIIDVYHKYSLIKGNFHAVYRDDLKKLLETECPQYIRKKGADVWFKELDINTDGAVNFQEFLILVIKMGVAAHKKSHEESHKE
T1 sequence (P06702 2-114 limits assumed): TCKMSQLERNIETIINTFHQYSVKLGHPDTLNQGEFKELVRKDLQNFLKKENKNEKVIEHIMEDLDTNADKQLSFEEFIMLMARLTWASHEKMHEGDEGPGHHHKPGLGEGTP

T2: arachidonic acid-binding heteromer (non-covalent complex of two MRP8 sub-units, SEQ ID NOs: 1-2, and one MRP14 sub-unit, SEQ ID NOs: 3-4) (Homo sapiens, UniProt P05109+P06702)
T2 construct: no tag
T2 sequence (P05109 1-93): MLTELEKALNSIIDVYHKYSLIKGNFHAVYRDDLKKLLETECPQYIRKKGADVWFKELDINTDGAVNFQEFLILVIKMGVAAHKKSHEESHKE
T2 sequence (P06702 1-114): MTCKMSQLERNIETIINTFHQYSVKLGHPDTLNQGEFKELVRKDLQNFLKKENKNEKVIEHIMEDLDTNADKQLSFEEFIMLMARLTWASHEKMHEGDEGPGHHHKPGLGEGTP

T3: MRP14 (migration inhibitory factor related protein 14) (human, UniProt P06702 1-114)
T3 construct: Sub-unit of the heteromer, seen by SDS-PAGE of the purified native complex; also called MRP14 sub-unit
T3 sequence: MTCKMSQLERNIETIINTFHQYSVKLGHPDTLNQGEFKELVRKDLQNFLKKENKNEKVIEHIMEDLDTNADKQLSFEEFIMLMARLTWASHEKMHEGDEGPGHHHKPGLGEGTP


Columns and labels:
[1] = system: E-FABP (epidermal fatty acid-binding protein) of keratinocytes; settings: Siegenthaler, G. et al. (1994) Biochem. J. 302, 363-371; cited from earlier work
[2] = molecular target: T1, arachidonic acid-binding heteromer (non-covalent complex of two MRP8 sub-units, SEQ ID NOs: 1-2, and one MRP14 sub-unit, SEQ ID NOs: 3-4; approx. 34 kDa), isola; test: binding of radiolabelled ligand to heteromer by gel filtration (Superose 12, HPLC)
Experimental: Indeed, when a determined quantity of heteromer in solution is incubated in the presence of 600 nM of radiolabelled arachidonic acid, then analyzed through a filtration column over gel [(Superose 12) balanced with a Tris/HCl buffer containing 0.2M NaCl and connected to a HPLC], the radioactive peak that co-elutes elutes at 34 kDa and corresponds to the radiolabelled arachidonic acid-heteromer complex is 1.5 times greater than if the experiment were performed in the same conditions, but with 600 nM of radiolabelled oleic acid.
(§1) More particularly, this heteromer consists of two MRP8 sub-units and one MRP14 sub-unit. These two proteins, MRP8 and MRP14, are in particular described in the Odink et al., (1987) Nature 330, 80-82 publication.
(§2) The purification process of the heteromer that is implemented consists specifically of the following steps: approximately 5 g of psoriasis scales are homogenized in 15 ml of Tris/HCl buffer using a homogenizer (Polytron) then, the mixture is centrifuged at 100000 g for 1 hour at 4° C. The pellet is collected and suspended in 5 ml of the same buffer and centrifuged at 10000 g. The supernatant is eliminated. This washing operation is carried out two more times. […]

[3] = molecular target: T2, arachidonic acid-binding heteromer (non-covalent complex of two MRP8 sub-units, SEQ ID NOs: 1-2, and one MRP14 sub-unit, SEQ ID NOs: 3-4); test: binding of linoleic acid to the heteromer (method not given)
[4] = molecular target: T1, arachidonic acid-binding heteromer (non-covalent complex of two MRP8 sub-units, SEQ ID NOs: 1-2, and one MRP14 sub-unit, SEQ ID NOs: 3-4; approx. 34 kDa), isola; test: dissociation constant by carbon-dextran technique with radiolabelled ligand, Scatchard plot; settings: comparison with E-FABP (Siegenthaler et al. 1994)
Experimental: These dissociation constants are obtained by carrying out measurements using the carbon-dextran technique. This technique is as follows: aliquot portions of 0.5 μg of heteromer in solution in 100 μl of Tris buffer (50 mM Tris/HCl, 25 mM NaCl, 2.5 mM EDTA, 1 mM DTT at pH 7.5) containing 0.5% of gelatin and 1% of DMSO are incubated for 1 hour at 37° C. in the presence of increasing quantities of radiolabelled ligand, i.e, 0-10 μM for the oleic acid and the arachidonic acid. Then, each aliquot portion is treated with 50 μl a mixture of carbon-dextran T40® (5% and 0.05% respectively) at 0° C. for 10 minutes, then centrifuged at 10000 g and the radioactivity of the supernatant is measured. A saturation curve is established, and the Kd is calculated using the Scatchard plot.
as §1
as §2, with “eliminated.” for “eliminated. This washing operation is carried out two more times.”

[5] = molecular target: T3, MRP14 (migration inhibitory factor …); test: gel filtration (34 kDa, non-denaturing) against SDS-PAGE of the purified heteromer
Experimental: The fractions that co-elute with the radioactive peak are gathered, dialyzed through a 20 mM Tris/HCl buffer, pH of 8.0 and the solution is concentrated. This solution is passed through a […] ion exchange column (Resource Q) balanced with the last buffer. The elution in the form of a gradient is performed with this Tris buffer containing 0.5M of NaCl. In the same way as above, the column has been standardized and only the proteins that co-elute with the radioactive peak are gathered, dialyzed through a 100 mM sodium phosphate buffer with a pH of 7.0 and concentrated The last purification step is carried out on a filtration column (Superose 12) balanced with the phosphate buffer. The protein peak that elutes at 34 kDa corresponds to the purified heteromer.

Molecule | affinity for fatty acids (in words) [1] | also measured
CCCCC/C=C\C/C=C\C/C=C\C/C=C\CCCC(=O)O [arachidonic acid] | weak or nonexistent affinity | radioactive peak of ligand-heteromer complex, ratio arachidonic acid to oleic acid ([2]; 600 nM radiolabelled arachidonic acid vs 600 nM radiolabelled oleic acid, peak at 34 kDa): 1.5 times; quantity of arachidonic acid bound relative to oleic acid ([2]; up to, general statement): up to 1.5 times
CCCCC/C=C\C/C=C\CCCCCCCC(=O)O [linoleic acid] | strong affinity | binding (in words) [3]: binds
CC/C=C\C/C=C\C/C=C\CCCCCCCC(=O)O [linolenic acid] | strong affinity | 
CCCCCCCC/C=C\CCCCCCCC(=O)O [oleic acid] | strong affinity | dissociation constant in relation to oleic acid compared with that of E-FABP for the same ligand [4]: less than that of the E-FABP
CCCCCCCCCCCCCCCCCC(=O)O [stearic acid] | strong affinity | 
MRP8 (migration inhibitory factor related protein 8) (other, Sub-unit of the heteromer, seen by SDS-PAGE of the purified native complex; also called MRP8 sub-unit) MLTELEKALNSIIDVYHKYSLIKGNFHAVYRDDLKKLLETECPQYIRKKGADVWFKELDINTDGAVNFQEFLILVIKMGVAAHKKSHEESHKE |  | binding result [5]: binds
